IC50 data for 16 molecules are collected here from patent publication US11186564B2, “Dual NAV1.2/5HT2a inhibitors for treating CNS disorders” (Sunovion Pharmaceuticals Inc., priority 2016, dated 2021).

In this assay the target is T1, recombinant human serotonin receptor 5-HT2A (Homo sapiens, UniProt P28223).
T1 construct: expressed in transfected cells; method B: loaded with Ca2+ dye
T1 sequence (P28223 whole entry): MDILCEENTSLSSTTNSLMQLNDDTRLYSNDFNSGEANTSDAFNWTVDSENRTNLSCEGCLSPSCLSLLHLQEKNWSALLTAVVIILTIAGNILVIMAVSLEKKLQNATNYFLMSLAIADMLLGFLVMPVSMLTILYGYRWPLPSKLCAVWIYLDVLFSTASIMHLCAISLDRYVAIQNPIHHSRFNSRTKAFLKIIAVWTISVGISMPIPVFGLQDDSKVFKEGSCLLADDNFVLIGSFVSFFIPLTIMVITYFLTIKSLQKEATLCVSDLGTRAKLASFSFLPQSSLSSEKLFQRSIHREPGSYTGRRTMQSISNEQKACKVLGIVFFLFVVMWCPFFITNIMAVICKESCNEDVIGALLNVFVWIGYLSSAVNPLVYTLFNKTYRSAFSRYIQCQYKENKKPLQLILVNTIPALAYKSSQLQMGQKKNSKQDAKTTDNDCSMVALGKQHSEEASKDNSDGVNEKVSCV
Kind of assay: 5-HT2A antagonist Ca2+ assay in CHO-K1 cells (method A aequorin luminescence / method B FLIPR fluorescence). It counts as cell-based. The conditions noted are these: antagonist mode vs EC80 of reference agonist, method A or B, read-out: 5HT2A IC50. An excerpt: The methods utilized to assess the inhibitory activity of compounds on recombinant human serotonin receptor 5-HT2A was based upon previously published approaches [Jerman J C, Brough S J, Gager T, Wood M, Coldwell M C, Smart D, Middlemiss D N. Pharmacological characterisation of human 5-HT2 receptor subtypes. European Journal of Pharmacology 2001 Feb. 23; 414(1):23-30; Le Poul E, Hisada S, Mizuguchi Y, Dupriez V J, Burgeon E, Detheux M. Adaptation of aequorin functional assay to high throughput screening. J Biomolecular Screening 2002 February; 7(1):57-65.] The 5-HT2A receptor signals through Gq-phospholipase signaling cascade, which leads to a transient increase in free intracellular […] concentration. Both 5-HT2A assay methods rely upon monitoring these changes in Ca^2+ concentration.
In method A [Le Poul E, Hisada S, Mizuguchi Y, Dupriez V J, Burgeon E, Detheux M. (2002)], CHO-K1 cells engineered to stably co-express both recombinant human 5-HT2A and mitochondrial apoaequorin are used. […] For agonist testing, 50 microliters of cell suspension is mixed with 50 microliters of a solution containing test compound or reference agonist in a 96-well standard geometry microtiter plate. The resulting emission of light was recorded using a Hamamatsu Functional Drug Screening System 6000 (FDSS 6000) luminometer. For antagonist testing, 100 microliters of the solution of reference agonist (to yield an agonist concentration, EC80, sufficient to cause the cells to generate an 80% maximal luminescence response in the absence of any antagonist) is injected into the mix of cells and test compound, 15 minutes after the first injection. The resulting emission of light is recorded using Hamamatsu FDSS 6000 luminometer. IC50 values are calculated (from compound concentration dependent inhibition of agonist-induced 5-HT2A-dependent light emission) by non-linear least squares regression of the data (percent inhibition) onto equation (1) above.
In method B [Jerman J C, Brough S J, Gager T, Wood M, Coldwell M C, Smart D, Middlemiss D N. (2001)], CHO-K1 cells which had been engineered to stably co-express recombinant human 5-HT2A are used in assay done similarly to method A. In method B, the cells are loaded with a fluorogenic Ca^2+ indicator dye by pre-incubation. Addition of the reference agonist serotonin causes a transient increase in fluorescence in a suspension of the loaded cells, which can be detected using the Molecular Devices fluorometric imaging plate reader (FLIPR), a high-throughput platform for 96-well cell-based assays. Addition of test compounds that are 5-HT2A antagonists, prior to the addition of the agonist (to yield an agonist concentration, EC80, sufficient to cause the cells to generate an 80% maximal fluorescence response in the absence of any antagonist), reduces the amount of fluorescence detected by the FLIPR upon agonist addition. IC50 values are calculated (from compound concentration dependent inhibition of agonist-induced 5-HT2A-dependent fluorescence) by non-linear least squares regression of the data (percent inhibition) onto equation (1) above.
Regarding `c1ccc(N2C[C@@H]3C[C@H]2CCN3CCC2CCc3cccnc32)cc1` (stereo partly drawn) [Example 323, 7-(2-((1S,5R)-6-phenyl-2,6-diazabicyclo[3.2.1]octan-2-yl)ethyl)-6,7-dihydro-5H-cyclopenta[b]pyridine], the IC50 was above 3.16 µM. Regarding `c1cnc(OC2CCN(CC3Cc4cccnc4C3)CC2)nc1` (stereo not shown) [Example 157, 6-((4-(pyrimidin-2-yloxy)piperidin-1-yl)methyl)-6,7-dihydro-5H-cyclopenta[b]pyridine], the IC50 is above 10 µM.

As for `OC(COc1ccccc1)CN1C[C@@H]2C[C@H](C1)N(c1ccccc1)C2` (stereo partly drawn) [Example 334, 1-phenoxy-3-((1S,5R)-6-phenyl-3,6-diazabicyclo[3.2.1]octan-3-yl)propan-2-ol], the half-maximal inhibitory concentration (IC50) is above 16.7 µM. Next, `COc1ccccc1O[C@@H]1CCN(CCN2CCc3ccccc3C2=O)[C@@H]1C` [Example 20, 2-(2-((2R,3R)-3-(2-methoxyphenoxy)-2-methylpyrrolidin-1-yl)ethyl)-3,4-dihydroisoquinolin-1(2H)-one]: 0.01 µM; `CC(C1CCc2ccccc21)N1CCC[C@H](Oc2ccc(F)cc2)C1` (stereo partly drawn) [Example 257, (3S)-1-(1-(2,3-dihydro-1H-inden-1-yl)ethyl)-3-(4-fluorophenoxy) piperidine]: above 10 µM. For `COc1cccc(O[C@H]2CCN(CC(O)CO[C@H]3CCc4ccccc43)C2)c1` (stereo partly drawn) [Example 39, 1-(((S)-2,3-dihydro-1H-inden-1-yl)oxy)-3-((S)-3-(3-methoxyphenoxy)pyrrolidin-1-yl)propan-2-ol] the value was 4.3 µM. Next, `COc1cccc(O[C@H]2CCN(CC(O)CO[C@@H]3CCc4ccccc43)C2)c1` (stereo partly drawn) [Example 41, 1-(((R)-2,3-dihydro-1H-inden-1-yl)oxy)-3-((S)-3-(3-methoxyphenoxy)pyrrolidin-1-yl)propan-2-ol]: 7.13 µM; `COc1ccc2c(c1)C(CN1C[C@H]3CC[C@@H]1CN3c1ccccc1)CC2` (single isomer, unassigned) [Compound 313]: above 10 µM. In the case of `c1ccc(CCN2C[C@@H]3C[C@H]2CN3c2ccccc2)cc1` [Example 305, (1S,4S)-2-phenethyl-5-phenyl-2,5-diazabicyclo[2.2.1]heptane], the IC50 is above 14.5 µM.

Consider `OC(CO[C@H]1CCCc2ccccc21)CN1CC[C@H](Oc2ccc(F)cc2)C1` (stereo partly drawn) [Example 49, 1-((S)-3-(4-fluorophenoxy)pyrrolidin-1-yl)-3-(((S)-1,2,3,4-tetrahydronaphthalen-1-yl)oxy)propan-2-ol], for which the IC50 worked out at 2.55 µM.

For `c1ccc(N2C[C@@H]3C[C@H]2CCN3CC2COCc3ccccc32)cc1` (stereo partly drawn) [Example 322, (1S,5R)-2-(isochroman-4-ylmethyl)-6-phenyl-2,6-diazabicyclo[3.2.1]octane], the IC50 was above 3.16 µM. For `OC(COC1CCCCC1)CN1CCCC12CCCN(c1ccccc1)C2` (stereo not shown) [Example 353, 1-(cyclohexyloxy)-3-(7-phenyl-1,7-diazaspiro[4.5]decan-1-yl)propan-2-ol] the value was above 16.7 µM; for `COc1ccc2c(c1)C(CN1CCC[C@H](Oc3ccc(F)cc3)C1)CC2` (stereo partly drawn) [Example 256, (3S)-3-(4-fluorophenoxy)-1-((6-methoxy-2,3-dihydro-1H-inden-1-yl)methyl)piperidine], 3.99 µM; for `COc1ccccc1OC1CCN(CC2CCc3ccccc32)CC1` (stereo not shown) [Example 105, 1-((2,3-dihydro-1H-inden-1-yl)methyl)-4-(2-methoxyphenoxy)piperidine], 0.43 µM.

Regarding `Fc1ccc(O[C@@H]2CCCN(CC3COCc4ccccc43)C2)cc1` (stereo partly drawn) [Example 260, (3R)-3-(4-fluorophenoxy)-1-(isochroman-4-ylmethyl)piperidine], the IC50 was found to be 1.81 µM.

Turning to `O[C@@H](COC1CCCCC1)CN1C[C@H]2CC[C@@H](C1)N2c1ccccc1` [Example 301, (R)-1-(cyclohexyloxy)-3-((1R,5S)-8-phenyl-3,8-diazabicyclo[3.2.1]octan-3-yl)propan-2-ol], the IC50 is above 10 µM.
